Laboratory results taken from patent US9714469B2, “Composition for increasing the lipophobicity of a watch-making component” (Rolex SA, priority 2010, dated 2017).

Tests used:
[1] = Contact angle of test oil on coated watch-making surfaces (epilame effect); format: physicochemical; conditions: for contact angle of the gold-plated brass part with the test oil: molecule alone at 10^−3 M, soaking 30 min; for contact angle test oil: molecule alone 10^−3 M in IPA, soaking 5 min
Experimental: (§1) The epilame effect is conventionally evaluated by measuring the contact angle of the lubricants or of a test fluid (water, test liquids NSSC test) on the surface of the component.
The increased epilame effect permitted by the composition of the invention must be such that this contact angle with a watch oil is greater than 30°, preferably 35°, even more preferably 40°, as such an angle corresponds to very high epilame efficacy (see Renaud 1956, Osowiecki 1962 and Massin 1971).
(§2) Deposit • Place the watch part or parts in a container with an adapted shape, • Cover the part or parts with coating solution (thiol, BP or BP/thiol-PFPE mixture), • Incubate between 5 minutes and 360 minutes, • Eliminate the supernatant—remove the part, • The part is drip dried (centrifugation).
Dehydration—Rinsing • The part which received the deposit is placed in an oven at 120° C. for a period ranging from 6 to 15 h (only for rubies and silicon), • The part is brought back to room temperature then immersed in IPA under ultrasound for 2 minutes, • The part is dried under a stream of hot air. […]
The lipophobic effect was evaluated by measuring the contact angles of a test oil having surface tension of 33 mN/m on different surfaces. […]
In accordance with the reference articles in the watch-making literature (Renaud 1956, Osowiecki 1962 and Massin 1971), an angle of over 40° with a watch lubricant corresponds to very high epilame efficacy. […]
On the basis of the kinetics of molecule I.1, the following parameters were used to test the four other thiol-PF and thiol-PFPE molecules (I.2, I.3, I.4, I.5): • Concentration: 10^−3 M for each compound I.1 to I.5 • Solvent: Isopropyl alcohol (IPA) or Biosane T212 (MMCC) • Soaking Time: 30 minutes • Rinsing time: 2 minutes under ultrasound • Drying: hot air
Evaluation of functional properties was carried out by measuring the contact angles between the surface of the watch-making component and the drop of watch-making oil. It is noticeable that the concentration of 10^−3 M gives results that comply with the desired epilame effect (angle greater than 30°) for all molecules I.1 to I.5.
(§3) The properties of thiol and bisphosphonate molecules in isolation were measured on the surfaces of steel and gold-plated substrates using solutions at 10^−3 M and in isopropanol in accordance with the protocol described in example 3 above, with a soaking time of 5 minutes.

[2] = Contact angle of water drops on coated watch-making surfaces; format: physicochemical; conditions: molecule alone 10^−3 M in IPA, soaking 5 min
Experimental: as §1, §2
Dehydration—Rinsing • The part which received the deposit is placed in an oven at 120° C. for a period ranging from 6 to 15 h (only for rubies and silicon), • The part is brought back to room temperature then immersed in IPA under ultrasound for 2 minutes, • The part is dried under a stream of hot air.
Different surfaces were treated with solutions of thiol I.3 and BP II.1 molecules. […]
According to the epilame method described in paragraphs 3 and 5.1, the materials were treated by the mixture of the thiol molecule I.3. with the BP molecule II.1. dissolved in IPA. The contact angles were measured before and after treatment of the surface. […]
as §3

Row | SMILES | contact angle of the gold-plated brass part with the test oil ([1]; solvent IPA) | contact angle of the gold-plated brass part with the test oil ([1]; solvent MMCC (Biosane T212)) | contact angle H2O ([2]; Au (gold-plated brass)) | contact angle H2O ([2]; Steel) | ranking of contact angles among the molecules [1] | contact angle test oil ([1]; Au (gold-plated brass)) | contact angle test oil ([1]; Steel)
1 | O=C(NCCS)C(F)(F)C(F)(F)C(F)(F)C(F)(F)C(F)(F)C(F)(F)C(F)(F)F [I.5] | 67.6 ± 3.6° | 49.5 ± 2.5° | – | – | – | – | –
2 | O=C(NCCCCCCS)C(F)(OC(F)(F)C(F)(OC(F)(F)C(F)(OC(F)(F)C(F)(OC(F)(F)C(F)(OC(F)(F)C(F)(F)C(F)(F)F)C(F)(F)F)C(F)(F)F)C(F)(F)F)C(F)(F)F)C(F)(F)F (stereo not drawn) [I.3] | 75.7 ± 6° | 63.8 ± 2.8° | 96.4 ° | 70.2 ° | highest | 69.0 ° | 33.5 °
